Here are results for four molecules from ChEMBL document CHEMBL4602699, “Identification and Optimization of EphA2-Selective Bicycles for the Delivery of Cytotoxic Payloads” (J Med Chem, 2020).

One may read the half-life as the time needed for the level to fall by half in the phase considered. A higher half-life goes with slow decline. Broadly, the fraction unbound is the share of the substance not bound to proteins or other matrix. Read a high fraction unbound as much free substance.

Series [1] in a line: in vitro. Conditions: mouse, plasma.
Description: Half life in mouse plasma at 2 uM by LC/MS/MS analysis
Series [2] is described as follows: in vitro. Conditions: human, plasma.
Description: (§1) Unbound fraction in human plasma at 2 uM incubated for 2 hrs by LC/MS/MS analysis
Series [3] is described as follows: in vitro. Conditions: human, plasma. This is another data set of the same source.
Description: Half life in human plasma at 2 uM by LC/MS/MS analysis
The test system of a further series is HT-1080. Description: animal or person. Conditions: Rattus norvegicus, HT-1080, iv, 336 h, read-out: MED.
The conditions of series [4]: human, plasma, 2 h, 2 µM.
Description: as §1

Bounds are passed on as bounds.

As for `CC(C)C[C@@H]1NC(=O)[C@@H]2CSCCC(=O)N3CN(CN(C3)C(=O)CCSC[C@H](NC(=O)[C@H](CC(=O)O)NC(=O)[C@H](CCCNC(=N)N)NC(=O)[C@H](C)NC(=O)CN(C)C(=O)CN(C)C(=O)CN(C)C(=O)CN(C)CC(=O)N(C)CC(=O)N(C)CC(=O)N(C)CC(=O)N(C)CC(=O)N(C)CC(=O)N(C)C(=O)CCN)C(=O)N3CCC[C@H]3C(=O)N[C@@H](CC(C)C)C(=O)N[C@@H](C(C)C)C(=O)N[C@@H](CC(N)=O)C(=O)N3CCC[C@H]3C(=O)N[C@@H](CC(C)C)C(=O)N2)C(=O)CCSC[C@@H](C(N)=O)NC(=O)C(CCCCNC(=N)N)NC(=O)[C@H](CC2CCc3ccccc32)NC(=O)[C@@H](CC(=O)O)NC(=O)[C@@H]2CCCN2C(=O)[C@H](Cc2c[nH]cn2)NC1=O` (some centres undefined), the half-life at 2 µM was 33 h in “in vitro [1]” and greater than 55 h in the series “in vitro [3]”. Moreover, the free fraction (fraction unbound) at 2 h, 2 µM in “in vitro [2]” worked out at 0.41.
The corresponding values for `CC(=O)N[C@@H](C)C(=O)N[C@@H](CCCNC(=N)N)C(=O)N[C@@H](CC(=O)O)C(=O)N[C@@H](CS)C(=O)N1CCC[C@H]1C(=O)N[C@@H](CC(C)C)C(=O)N[C@H](C(=O)N[C@@H](CC(N)=O)C(=O)N1CCC[C@H]1C(=O)N[C@@H](CC(C)C)C(=O)N[C@@H](CS)C(=O)N[C@@H](CC(C)C)C(=O)N[C@@H](Cc1cnc[nH]1)C(=O)N1CCC[C@H]1C(=O)NCC(=O)N[C@@H](Cc1c[nH]c2ccccc12)C(=O)N[C@H](C(=O)N[C@@H](CS)C(=O)O)[C@@H](C)O)C(C)C` are 3.6 h, 3.7 h and 0.646.
For `COc1cc2cc(c1Cl)N(C)C(=O)C[C@@H](OC(=O)[C@@H](C)N(C)C(=O)CCSSCCCC(=O)NCCC(=O)N(C)C(=O)CN(C)C(=O)CN(C)C(=O)CN(C)C(=O)CN(C)C(=O)CN(C)C(=O)CN(C)CC(=O)N(C)CC(=O)N(C)CC(=O)N(C)CC(=O)N[C@@H](C)C(=O)N[C@@H](CCCNC(=N)N)C(=O)N[C@@H](CC(=O)O)C(=O)N[C@H]1CSCCC(=O)N3CN4CN(C3)C(=O)CCSC[C@H](NC(=O)[C@H](CC(C)C)NC(=O)[C@@H]3CCCN3C(=O)[C@H](CC(N)=O)NC(=O)[C@H](C(C)C)NC(=O)[C@H](CC(C)C)NC(=O)[C@@H]3CCCN3C1=O)C(=O)N[C@@H](CC(C)C)C(=O)N[C@@H](Cc1c[nH]cn1)C(=O)N1CCC[C@H]1C(=O)N[C@H](CC(=O)O)C(=O)N[C@@H](CC1CCc3ccccc31)C(=O)NC(CCCCNC(=N)N)C(=O)N[C@H](C(N)=O)CSCCC4=O)[C@@]1(C)O[C@@H]1[C@@H](C)[C@H]1C[C@](O)(NC(=O)O1)[C@@H](OC)/C=C/C=C(\C)C2` (some centres undefined), the minimal effective dose in the series with HT-1080 was 3 mg/kg. In “in vitro [2]”, this molecule had a fraction unbound at 2 h, 2 µM of 0.44.
Consider `CC(C)[C@H](NC(=O)[C@@H](CC(=O)O)NC(=O)[C@H](Cc1c[nH]cn1)NC(=O)CN(C)C(=O)CN(C)C(=O)CN(C)C(=O)CN(C)CC(=O)N(C)CC(=O)N(C)CC(=O)N(C)CC(=O)N(C)CC(=O)N(C)CC(=O)N(C)C(=O)CCN)C(=O)N1CCC[C@H]1C(=O)N[C@@H]1CSCc2cc3cc(c2)CSC[C@H](C(N)=O)NC(=O)[C@@H](CC(=O)O)NC(=O)[C@@H]2CCCN2C(=O)[C@H](CCCCNC(=N)N)NC(=O)[C@H](CC(N)=O)NC(=O)[C@H](C(C)(C)C)NC(=O)[C@@H]2CCCN2C(=O)[C@H](CSC3)NC(=O)[C@H](Cc2cccc3ccccc23)NC(=O)[C@H](Cc2ccccc2)NC(=O)C(C)(C)NC(=O)CNC(=O)[C@H](Cc2cccc3ccccc23)NC(=O)C(C)(C)NC1=O`, for which the Fu result in series [4] is “Bld”.
